The target in one test is ΔTRα1 (Rattus norvegicus, UniProt P63059). Kind of test: [125I]rT3 displacement from cell-free translated ΔTRα1. The format is binding. The conditions noted are these: cell-free translated polypeptide. The source says: (§1) ΔTRα1 and ΔTRα2 polypeptides were synthesized by cell-free translation of appropriate segments of the rat ΔTRα1 and ΔTRα2 cDNA using the coupled transcription-translation kit from Promega® (TNT) according to the manufacturer's instructions.

In test [1] the test system is cerebellar granule neurons. The test can be described thus: release of FM1-43-loaded synaptic vesicles from cerebellar granule neurons under continuous stimulus. The format is cell-based, rat. To be noted: 10 nM hormone; continuous stimulation by 50 mM KCl; vs no hormone controls; first order kinetics assumed. Here is the method:
Granule neurons were grown for 7 days and rendered hormone free by growth in serum-free medium as detailed above. Coverslips were then placed in a perfusion chamber, mounted on the stage of a laser scanning confocal microscope and perfused at 1 ml/min at 25° C. with perfusion buffer (119 mM NaCl, 2.5 mM KCl, 2 mM CaCl2, 2 mM MgCl2, 25 mM HEPES (pH 7.4), 30 mM glucose, and […] AP-5). The effects of different hormones on synaptic vesicle trafficking were then determined. […] Depolarizing KCl was then removed from the perfusion buffer and the cells were exposed to FM1-43 for an additional 30 seconds to insure complete loading of recycling synaptic vesicles. Loaded cells were then washed free of dye and the cells were perfused for ten minutes at rest.
Images of a single field of neuronal fibers were then taken immediately before adding a second depolarizing solution (perfusion buffer containing 50 mM KCl) and at one and two minutes after beginning the continuous stimulation by 50 mM KCl. Thirty to forty-five individual FM1-43 labeled nerve terminals were identified in the baseline images (taken prior to depolarization) and the change in fluorescence (DF) for each nerve terminal determined at the one and two minute time points. FIGS. 11A and 11B show the results of analysis of the hormone specificity of synaptic vesicle trafficking (FIG. 11A) and the influence of individual myo5a mutants (FIG. 11B) on synaptic vesicle transport in granule neurons.
To evaluate the role of myo5a in synaptic vesicle transport, three different myo5a constructs were introduced into the neurons by replication-deficient adenoviral vectors (Δmyo5a^tail(MyoV^tail), Δmyo5a^c-term(MyoV^1830)and ΔMyo5a^CC(MyoV^cc) see FIG. 5) as described above. […] Neurons were infected with purified Ad5-constructs (MOI=10) 48 hours prior to the synaptic vesicle trafficking study, and allowed to recover in hormone (T4) supplemented medium. […] This modest influence of the VBD mutant on synaptic vesicle retention is likely to be due to the loss of the kinesin-binding domain that limits its delivery to nerve terminals.

Test [2] concerns the target binding of p29^GFP vesicles to F-actin. The test can be described thus: modified in vitro actin binding assay with p29^GFP-labeled vesicles. It is filed as biochemical, rat. To be noted: 0-100 nM, 20 minutes at 37° C.; read-out: EC50, increase in quantity of p29^GFP bound to F-actin. Here is the method:
To define the specific region(s) of the myosin V tail that interact with the p29 vesicle, a series of deletion mutations were created based on the dominant negative effect of exogenous myosin V tail on p29 vesicle binding. Competition analysis of the myosin V deletion mutations on T4-dependent binding of p29 vesicles to F-actin was performed using a modified in vitro assay in which a GFP-tagged p29 fusion protein (p29^GFP) replaced the radioaffinity labeled native p29 (Farwell et al., 1990, J. Biol. Chem. 265:18546-18553; Farwell et al., 1993, J. Biol. Chem. 268:5055-5062). This allowed direct evaluation of the binding of fluorescent vesicles to F-actin without affinity radiolabeling of the p29 and subsequent SDS-PAGE analysis.
Specific fluorescence at 510 nm (excitation, 488 nm) was then determined in the resuspended Triton-insoluble pellets.
To determine if the myosin V tail could be captured by the p29^GFP vesicle, an exogenous myosin V^tail was introduced into astrocytes constitutively expressing p29^GFP by infection with Ad5-ΔMyo V^tail virus particles and examined the effects of T4 on the binding of the myosin V^tail to immunopurified p29^GFP vesicles. Astrocytes expressing p29^GFP were grown in serum-free media and treated for 16 hours with 1 mM bt2cAMP and 100 nM hydrocortisone. A separate pool of astrocytes was treated in serum-free media supplemented with 10 μM retinoic acid. Cells were collected by scraping, and lysed by two freeze-thaw cycles. […] Triton-soluble (vesicle) and Triton-insoluble (F-actin) fractions were separated by microflige centrifugation. Triton pellets were resuspended in 300 μl of PBS and fluorescence at 510 nm (excitation 488 nm) determined and relative fluorescence was reported as arbitrary units. Cells were treated with 10 nM T4 for twenty minutes and a Triton-soluble supernatant was prepared. Vesicles containing the p29^GFP were immunoprecipitated by anti-GFP IgG (2 μg/ml) and protein in the immunoprecipitates were resolved by SDS-PAGE. Immunoblot analysis of vesicle-associated myosin V was performed using the anti-myosin V antibody directed against the C-terminus.
The quantity of each mutant protein synthesized was determined by [^35 S]-methionine incorporation. Astrocytes expressing p29^GFP were grown in serum-free media and treated for 16 hours with […] bt2cAMP and 100 nM hydrocortisone. p29^GFP V-lysate and F-lysate were prepared as described herein. 100 μg aliquots of p29^GFP V-lysate and F-lysate were pre-incubated, in triplicate, for 20 minutes at 37° C. in the presence of individual Δ myosin V mutant proteins (˜2-3 pmol polypeptide/50 μl mixture) were added to the actin-binding assay and pre-incubated for 20 minutes at 37° C. T4 (10 nM) was then added, the mixtures incubated for 20 minutes at 37° C., and F-actin bound, fluorescent p29^GFP vesicles were then isolated in the Triton-insoluble pellet.
V lysates prepared from astrocytes over-expressing p29^GFP were pre-incubated for 30 minutes at room temperature with antisera raised against ΔTRα2, ΔTRα1, the C-terminus of MyoV (encoded by MyoV^tail, FIG. 5), the coiled-coil region of MyoV (encoded by MyoV^coil-coil, FIG. 5) and GFP (green fluorescent protein). T4 (10 nM) and actin fiber-containing F-lysate was then added, the mixtures incubated at 37° C. for 20 minutes, and the Triton-insoluble fraction isolated by centrifugation.

In test [3] the test system is binding of p29 vesicles to F-actin. Kind of test: in vitro actin binding assay with BrAc[125I]T4-labeled p29 vesicles. It is filed as biochemical, rat. To be noted: 10 nM hormone, 20 minutes at 37° C.
Procedure: Actin binding of the p29 vesicles was then initiated by addition of 10 nM T4, and the Triton-insoluble (F-actin bound) pellet was separated from the Triton-soluble (vesicle) fraction.
An in vitro binding assay was developed whose principle is based on the hormone dependent redistribution of affinity labeled p29 between the Triton-soluble (vesicle pool) and Triton-insoluble (F-actin cytoskeleton) fractions. The assay was used to examine the hormone dependent relationship between the p29-containing endosome and the F-actin cytoskeleton. Two different pools of astrocytes were prepared. […] The other astrocyte pool was used to prepare affinity BrAc [^125 I]T4-labeled p29 vesicles from thyroid-deficient cells (V-lysate; Farwell et al. 1990, J. Biol. Chem. 265:18546-18553). V-lysates were prepared from cAMP-stimulated astrocytes grown in serum-free media that were labeled with 2 nM BrAc[^125 I]T4 as described in Farwell et al. (1990, J. Biol. Chem. 265:18546-18553). […]
After the incubation, the mixtures were chilled on ice for 2 minutes, then Triton X-100® (0.5% v/v, final) was added and the soluble (Triton supernatant, vesicles) and insoluble (Triton pellet, F-actin) fractions were separated by microfuge centrifugation at 4° C. for 5 minutes. The distribution of [^125 I]-labeled p29 was then determined by SDS PAGE analysis.
Another test has as its system D2 activity. To be noted: in astrocytes; cited from earlier work.
A further test concerns the target T1, ΔTRα2 (Rattus norvegicus, UniProt P63059).
T1 sequence (P63059 256-492): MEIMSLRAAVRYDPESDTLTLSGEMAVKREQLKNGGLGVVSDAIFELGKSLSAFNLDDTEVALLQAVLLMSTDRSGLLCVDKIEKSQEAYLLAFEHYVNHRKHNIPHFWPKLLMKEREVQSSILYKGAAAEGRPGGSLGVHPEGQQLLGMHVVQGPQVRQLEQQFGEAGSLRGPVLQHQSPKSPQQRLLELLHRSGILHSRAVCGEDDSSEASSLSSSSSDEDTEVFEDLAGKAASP
The test can be described thus: [125I]rT3 displacement from cell-free translated ΔTRα2. The format is binding. To be noted: cell-free translated polypeptide.
Source text: as §1

Turning to `N[C@@H](Cc1cc(I)c(Oc2cc(I)c(O)c(I)c2)c(I)c1)C(=O)O` [T4, thyroxine], the Kd on ΔTRα1 and on ΔTRα2 was 300 to 1000 pM in each case. Further, the “decrease of the rate of FM1-43 release” value in test [1] worked out at 75%. Also, in test [2], the EC50 (commonly the midpoint of the concentration-response curve) was about 500 pM. For the same compound, in test [3], the “radiolabeled p29 bound to the Triton insoluble, F-actin fraction” value is on record as “more than 70%”. Moreover, in the test with D2 activity, the “quantity of D2 activity” value was “decreases the quantity of D2 activity”.

Values taken from patent US7374890B2, “Methods for identifying compounds that modulate ΔTRα2 activity” (University of Massachusetts, priority 2000, dated 2008).
